These results are taken from article PMC4313372, “MHJ_0461 is a multifunctional leucine aminopeptidase on the surface of Mycoplasma hyopneumoniae” (Open Biology, 2015).

Test [1] has as its target T1, rMHJ_0461 (Mesomycoplasma hyopneumoniae, UniProt Q4A9M4). The test is described as follows: fluorogenic aminopeptidase assay, leucine-AMC, […] min preincubation. In kind it is biochemical. Further details: gene pepA; multimers of about 500 and 800 kDa. To be noted: read-out: % inhibition at 1 mM.
The target of test [2] is T1, rMHJ_0461. Further details: gene pepA. To be noted: 50 uM substrate, 5 mM Mn2+, pH 7.2, 37 C.
In test [3] the target is recombinant MHJ_0461 (Mycoplasma hyopneumoniae strain J). Kind of test: native gel or EMSA; Blue Native PAGE of purified rMHJ_0461; complexes identified by LC-MS/MS of tryptic peptides.

Bounds are passed on as bounds.

In the case of `CC(C)C[C@@H](N)[C@H](O)C(=O)N[C@H](C(=O)N[C@H](C(=O)N[C@@H](CC(=O)O)C(=O)O)C(C)C)C(C)C` [amastatin], the inhibition (in general, the percentage by which the read-out fell short of the control) at 1000 µM on rMHJ_0461 [1] was found to be 69%.
As for `CC(C)C[C@H](NC(=O)[C@@H](O)[C@H](N)Cc1ccccc1)C(=O)O` [bestatin], the inhibition at 1000 µM at rMHJ_0461 [1] was found to be 99%.
For `CSCC[C@H](N)C(=O)Nc1ccc2c(C)cc(=O)oc2c1` [methionine-AMC], the “fluorogenic AMC release assay” value at rMHJ_0461 [2] is “leucine > methionine > phenylalanine > arginine > alanine > isoleucine > glycine > valine”.
In the case of recombinant MHJ_0461 (enzyme), the stoichiometry N (in general, a count of units in the complex or per binding partner) in test [3] is over 10 subunits.
